Measurements: ChEMBL document CHEMBL4130433, “Acridone-pyrimidine hybrids- design, synthesis, cytotoxicity studies in resistant and sensitive cancer cells and molecular docking studies” (Eur J Med Chem, 2017)

Assays:
[1] = tested on: K562; experiment: Cytotoxicity against human K562 cells by MTT assay; type: functional, cell-based
[2] = tested on: MDA-MB-231; experiment: Antiproliferative activity against human MDA-MB-231 cells after 72 hrs by MTT assay; type: functional, cell-based; details: MDA-MB-231, 72 h
[3] = tested on: HeLa; experiment: Antiproliferative activity against human HeLa cells after 72 hrs by MTT assay; type: functional, cell-based
[4] = tested on: MCF7; experiment: Antiproliferative activity against human MCF7 cells after 72 hrs by MTT assay; type: functional, cell-based; details: MCF7, 72 h
[5] = Cytotoxicity against African green monkey Vero cells after 72 hrs by MTT assay; type: cell-based; details: chlorocebus sabaeus
[6] = target: RAC-alpha serine/threonine-protein kinase (Homo sapiens, UniProt P31749); experiment: Inhibition of PH domain lacking AKT1 (unknown origin) using Tamara-labeled GRPRTSSFAEG peptide as substrate after 90 mins by fluorescence polarization IMAP assay
RAC-alpha serine/threonine-protein kinase, sequence (P31749 whole entry, the tested form may be a part): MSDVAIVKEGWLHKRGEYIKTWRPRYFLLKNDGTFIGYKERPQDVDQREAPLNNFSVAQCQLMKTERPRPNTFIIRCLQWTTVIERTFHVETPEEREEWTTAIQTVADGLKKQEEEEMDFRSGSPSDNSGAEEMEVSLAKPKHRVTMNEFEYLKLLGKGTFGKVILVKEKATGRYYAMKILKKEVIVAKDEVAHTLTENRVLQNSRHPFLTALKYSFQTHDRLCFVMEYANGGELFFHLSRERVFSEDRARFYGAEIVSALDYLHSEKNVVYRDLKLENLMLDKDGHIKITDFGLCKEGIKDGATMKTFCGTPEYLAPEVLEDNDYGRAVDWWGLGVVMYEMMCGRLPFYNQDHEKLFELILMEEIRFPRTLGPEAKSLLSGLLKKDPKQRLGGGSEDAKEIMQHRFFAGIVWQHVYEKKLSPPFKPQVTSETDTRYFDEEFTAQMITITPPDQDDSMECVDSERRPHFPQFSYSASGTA

[7] = tested on: A549; experiment: cells; details: Homo sapiens, A549, 72 h
Description: Antiproliferative activity against human A549 cells after 72 hrs by MTT assay

[8] = tested on: MDA-MB-231; experiment: Effect on total AKT protein expression in human MDA-MB-231 cells at antiproliferative IC50 after 48 hrs by Western blot method; type: cell-based; details: mda-mb-231, 48 h
[9] = tested on: MCF7; experiment: Cytotoxicity against human MCF7 cells by MTT assay; type: functional, cell-based
[10] = tested on: 2008; experiment: Antiproliferative activity against human 2008 cells after 72 hrs by MTT assay; type: functional, cell-based; details: Homo sapiens, 2008, 72 h
[11] = tested on: 2008; experiment: Antiproliferative activity against resistant human 2008 cells clone 4 harboring MRP1 after 72 hrs by MTT assay; type: functional, cell-based; details: Homo sapiens, 2008, 72 h
[12] = tested on: 2008; experiment: Antiproliferative activity against resistant human 2008 cells clone 6 harboring MRP1 after 72 hrs by MTT assay; type: functional, cell-based; details: Homo sapiens, 2008, 72 h
[13] = tested on: SW1573; experiment: Antiproliferative activity against human SW1573 cells after 72 hrs by MTT assay; type: functional, cell-based; details: SW1573, 72 h
[14] = tested on: SW1573; experiment: Antiproliferative activity against resistant human SW1573 2R 120 cells harboring MRP1 after 72 hrs by MTT assay; type: functional, cell-based; details: SW1573, 72 h
[15] = tested on: SW1573; experiment: Antiproliferative activity against resistant human SW1573 2R 160 cells harboring P-gp after 72 hrs by MTT assay; type: functional, cell-based; details: SW1573, 72 h
[16] = Antiproliferative activity against human MCF7/MX cells after 72 hrs by MTT assay; type: functional, cell-based
[17] = Antiproliferative activity against human MCF7/DX cells after 72 hrs by MTT assay; type: functional, cell-based

Row | SMILES | IC50 [1] [nM] | IC50 [2] [µM] | IC50 [3] [µM] | IC50 [4] [µM] | CC50 at 72 h [5] [µM] | IC50 [6] [nM] | IC50 [7] [µM] | Activity [8] | IC50 [9] [µM] | IC50 [10] [µM] | IC50 [11] [µM] | IC50 [12] [µM] | IC50 [13] [µM] | IC50 [14] [µM] | IC50 [15] [µM] | IC50 [16] [µM] | IC50 [17] [µM]
1 | Cc1cccc2c(=O)c3c(NCc4ccccc4)ccc(C(=O)NCCN(C)C)c3[nH]c12 | 460 | – | – | – | – | – | – | – | – | – | – | – | – | – | – | – | –
2 | CCOC(=O)c1c(C)nc(NNC(=O)c2cccc3c(=O)c4ccccc4[nH]c23)nc1-c1ccc(F)cc1 | – | > 100 | 47.1 | > 100 | 58.2 | 176 | > 100 | – | – | – | – | – | – | – | – | – | –
3 | CCOC(=O)c1c(C)nc(NNC(=O)c2cccc3c(=O)c4ccccc4[nH]c23)nc1-c1ccccc1F | – | 6.28 | 52.6 | 7.3 | 61.3 | 8.2 | 3.12 | Non-Toxic | – | – | – | – | – | – | – | – | –
4 | CCOC(=O)c1c(C)nc(NNC(=O)c2cccc3c(=O)c4ccccc4[nH]c23)nc1-c1ccc(C)cc1 | – | 5.6 | 48.5 | 11.4 | 72.3 | 980 | 9.74 | – | – | – | – | – | – | – | – | – | –
5 | COC(=O)c1c(C)nc(NNC(=O)c2cccc3c(=O)c4ccccc4[nH]c23)nc1-c1ccc(OC)cc1 | – | 74.5 | 37.4 | 52.1 | 86.2 | 640 | 44.8 | – | – | – | – | – | – | – | – | – | –
6 | CCOC(=O)c1c(C)nc(NNC(=O)c2cccc3c(=O)c4ccccc4[nH]c23)nc1-c1cccc(OC)c1 | – | > 100 | > 100 | > 100 | 64.1 | 251 | > 100 | – | – | – | – | – | – | – | – | – | –
7 | CCOC(=O)c1c(C)nc(NNC(=O)c2cccc3c(=O)c4ccccc4[nH]c23)nc1-c1ccccc1 | – | 19.6 | 45.8 | 15.6 | 92.8 | 4.7 | 8.49 | Non-Toxic | – | – | – | – | – | – | – | – | –
8 | COC(=O)c1c(C)nc(NNC(=O)c2cccc3c(=O)c4ccccc4[nH]c23)nc1-c1ccccc1F | – | 41.6 | 67.3 | 25.7 | 76.1 | 432 | 20.6 | – | – | – | – | – | – | – | – | – | –
9 | COc1ccc(Cn2cc(Cn3c4ccccc4c(=O)c4cc(OC)ccc43)nn2)cc1 | – | – | – | – | – | – | – | – | 11 | – | – | – | – | – | – | – | –
10 | COC(=O)c1c(C)nc(NNC(=O)c2cccc3c(=O)c4ccccc4[nH]c23)nc1-c1ccc(F)cc1 | – | 56.2 | 44.5 | 33 | 78.2 | 313 | 36.5 | – | – | 23 | 24 | 27 | 75 | > 100 | 62 | 30 | 45
11 | CCOC(=O)c1c(C)nc(NNC(=O)c2cccc3c(=O)c4ccccc4[nH]c23)nc1-c1ccc(OC)cc1 | – | 7.12 | 74.5 | 10.5 | 82.3 | 1.72 | 3.26 | Non-Toxic | – | – | – | – | – | – | – | – | –
12 | COC(=O)c1c(C)nc(NNC(=O)c2cccc3c(=O)c4ccccc4[nH]c23)nc1-c1cccc(OC)c1 | – | 58.3 | 72.6 | 32 | 95.1 | 482 | 27.2 | – | – | 34 | 74 | 72 | 5 | > 100 | 10 | 30 | 78
13 | CCOC(=O)c1c(C)nc(NNC(=O)c2cccc3c(=O)c4ccccc4[nH]c23)nc1-c1ccc(OC)c(OC)c1 | – | 47.3 | 57.5 | 26 | 84.3 | 115 | 41.7 | – | – | 15 | 25 | 19 | 45 | 38 | 62 | 38 | 30
14 | COC(=O)c1c(C)nc(NNC(=O)c2cccc3c(=O)c4ccccc4[nH]c23)nc1-c1ccccc1 | – | 47.4 | 56.7 | 36.2 | 80 | 56 | 20.4 | – | – | – | – | – | – | – | – | – | –
15 | CCOC(=O)c1c(C)nc(NNC(=O)c2cccc3c(=O)c4ccccc4[nH]c23)nc1CC(C)C | – | 8.61 | 39.1 | 4.32 | 78.2 | 12 | 3.9 | Non-Toxic | – | – | – | – | – | – | – | – | –
16 | COC(=O)c1c(C)nc(NNC(=O)c2cccc3c(=O)c4ccccc4[nH]c23)nc1-c1ccc(C)cc1 | – | 23.7 | 76.4 | 45.2 | 64.2 | 738 | 40.5 | – | – | – | – | – | – | – | – | – | –
17 | COc1cccc2c1C(=O)c1c(O)c3c(c(O)c1C2=O)C[C@@](O)(C(=O)CO)C[C@@H]3O[C@H]1C[C@H](N)[C@H](O)[C@H](C)O1 [DOXORUBICIN] | – | – | – | – | – | – | 10.2 | Non-Toxic | – | – | – | – | – | – | – | – | –
18 | C#Cc1cccc(Nc2ncnc3cc(OCCOC)c(OCCOC)cc23)c1 [ERLOTINIB] | – | – | – | – | – | – | 21.3 | – | – | – | – | – | – | – | – | – | –
